The text below walks through data of patent publication US9901638B2, “Composition and method for treating an autoimmune disease” (RedHill Biopharma Ltd., priority 2011, dated 2018).

This experiment concerns EAE relapse (remitting-relapsing MS model). As to the kind of experiment: EAE relapse study (PLP139-151/CFA), therapeutic treatment. Particulars: groups of 15; treatment from enrolment to Day 39; vehicle group 8 mice; FTY-720 3 mg/kg p.o. QD, RHB-104 p.o. BID. The experiment is classed as in vivo. An excerpt:
Disease was induced by immunizing mice on Day 0 with PLP139-151 peptide emulsified in complete Freund's adjuvant (CFA).
To assess disease development, mice were weighed three times per week (Monday, Wednesday and Friday) from the time of immunization and scored daily for clinical signs of EAE starting on Day 9.
Enrollment of mice into groups occurred on the second day of clinical signs of EAE for each mouse. Mice were enrolled into treatment groups as they develop signs of EAE (rolling enrolment).
45 mice were enrolled into 3 groups of 15 and the treatment started on the day of enrolment. Assignment was balanced to achieve similar scores between the groups at enrolment.
Group 1—Vehicle (PBS), p.o., BID, 5 mL/kg (negative control)
Group 2—treated with FTY-720 (Fingolimod, Gilenya) 3 mg/kg, p.o., QD (a drug used for treatment of MS and used as a positive control)
Group 3—treated with RHB-104, p.o., BID, 5 mL/kg
Treatment started on the day of enrolment and continued until Day 39.
All dosing was performed at the same time (+/−1 hour) each day. […]
Mice were scored daily from Day 9 to Day 40, and body weight was measured three times/week (Monday, Wednesday and Friday), starting before immunization (Day −1). […]
Readouts were EAE scores on the scale 0-5 in 0.5 unit increments, and changes in body weight.
EAE was scored on scale 0 to 5 as described above.

Structures are written as SMILES.

As for `CCCCCCCCc1ccc(CCC(N)(CO)CO)cc1` [FTY-720, Fingolimod], the “Number of mice showing relapse” value was 2 mice.
